Measured values published in patent publication US20120238865A1, “Method for Measuring the Physiological Parameters of Brain Interstitial Fluid and Brain Extracellular Space” (priority 2009, published 2012).

Tests used:
[1] = MRI of contrast agent diffusion after injection into brain ECS of rat caudate nucleus; format: in vivo
Procedure: In this exemplary embodiment, the rat 10 is anesthetized and incised in the scalp along the sagittal suture. The periosteum was separated and the bregma was exposed. 1 μL Gd-DTPA with concentration range of 5 to 25 mM is injected into the brain ECS of the rat caudate nucleus at the rate of 0.1 μL/min.
The microsyringe is slowly removed 5 minutes after injecting. In FIG. 4, the rat narcotized is placed in the wrist coil 30 in the prone position and sent into the imaging device 20 with the examination couch 12. A T1 weighted sequence is used for the MRI scanning MR images from the imaging device 20 are processed in the image-processing unit of the controlling device 40.
FIG. 6 is a curve of SI increment (ASI) vs. time of the contrast agents along X direction of FIG. 5 at the spots respectively 1 mm, 2 mm, and 3 mm away from the injection site. The increment of SI reflected the concentration increment of the contrast agents. In FIG. 6, the peak of ASI appears in the region which is 1 mm away from the injection site about 1 h after injection, and then value of ASI slowly falls down.

[2] = Linear fitting of MRI signal intensity vs contrast agent concentration in agarose; format: physicochemical
Procedure: According to the curve, when the concentration of the contrast agents is in the range of 0-5 mM, the SI increased with the concentration. The concentration is related to the SI. In the curve, the abscissa is the concentration of the contrast agent which reflects the mobility of the ISF in brain ECS and the ordinate is the SI of MRI. It is known by the persons skilled in art that the SI here may be the directly SI or the result which is calculated indirectly from the SI such as T1. In the exemplary embodiment, the contrast agents are Gd-DPTA. Other non-ferromagnetic, non-neurotoxicity and extracellular contrast agents, such as T1 positive MRI contrast agent, also can be used here.
According to the curve shown in FIG. 2, the liner equation of the curve is obtained as below
In the four experiments, injecting contrast agents with different concentration range are into agarose, the distribution of SI of the MRI is measured in different magnetic field intensity or different MRI sequence. When quantitative measuring the contrast agents via the SI, the value of K and B can be determined via linear fitting according to the experimental conditions,
FIG. 3 is a fitting curve of the SI and the concentration of the contrast agents corresponding to the Experiment 1 shown in Table 1. It is the measurement result under the circumstances that the magnetic field intensity is 1.5T, the MRI sequence is FLASH 2D, the contrast agent is Gd-DTPA and the concentration range is 0 to 1.2 mM. According to the fitting curve, the value of K is 337.434 and the value of B is 184.344.

## O=C([O-])CN(CCN(CC(=O)[O-])CC(=O)O)CCN(CC(=O)[O-])CC(=O)O.[Gd+3] [Gd-DTPA]
[1]; 1 mm away from injection site along X direction, 1 μL 5 to 25 mM into caudate nucleus
  Time of peak of SI increment (ASI) after injection: about 1 h
[1]; spots 2 mm and 3 mm away from injection site (cortex)
  Course of SI increment (ASI, concentration increment) over time: first slowly increases then slowly decreases
[2]; Experiment 1: 1.5T, FLASH 2D, concentration range 0-1.2 mM
  Value of K (slope of SI vs concentration): 337.434
[2]; Experiment 2: 3T, FLASH 2D, concentration range 0-1.2 mM
  Value of K (slope of SI vs concentration): 247.834
[2]; Experiment 3: 3T, 3D MP-RAGE, concentration range 0-0.5 mM
  Value of K (slope of SI vs concentration): 1913.686
[2]; Experiment 4: 3T, 3D MP-RAGE, concentration range 0-1 mM
  Value of K (slope of SI vs concentration): 1174.5
